# Results reported in ChEMBL document CHEMBL4130561, “Design and Synthesis of N1-Modified Imidazoquinoline Agonists for Selective Activation of Toll-like Receptors 7 and 8” (ACS Med Chem Lett, 2017).
# Activity calls are given as the source filed them. No cut-off for these calls is given here.
# Legend:
# [1] = biological target: T1, Toll-like receptor 7 (Homo sapiens, UniProt Q9NYK1); assay: Agonist activity at human TLR7 expressed in HEK cells after 8 to 12 hrs by NFkappaB/SEAP reporter gene assay; assay type: cell-based
# T1 sequence (Q9NYK1 whole entry): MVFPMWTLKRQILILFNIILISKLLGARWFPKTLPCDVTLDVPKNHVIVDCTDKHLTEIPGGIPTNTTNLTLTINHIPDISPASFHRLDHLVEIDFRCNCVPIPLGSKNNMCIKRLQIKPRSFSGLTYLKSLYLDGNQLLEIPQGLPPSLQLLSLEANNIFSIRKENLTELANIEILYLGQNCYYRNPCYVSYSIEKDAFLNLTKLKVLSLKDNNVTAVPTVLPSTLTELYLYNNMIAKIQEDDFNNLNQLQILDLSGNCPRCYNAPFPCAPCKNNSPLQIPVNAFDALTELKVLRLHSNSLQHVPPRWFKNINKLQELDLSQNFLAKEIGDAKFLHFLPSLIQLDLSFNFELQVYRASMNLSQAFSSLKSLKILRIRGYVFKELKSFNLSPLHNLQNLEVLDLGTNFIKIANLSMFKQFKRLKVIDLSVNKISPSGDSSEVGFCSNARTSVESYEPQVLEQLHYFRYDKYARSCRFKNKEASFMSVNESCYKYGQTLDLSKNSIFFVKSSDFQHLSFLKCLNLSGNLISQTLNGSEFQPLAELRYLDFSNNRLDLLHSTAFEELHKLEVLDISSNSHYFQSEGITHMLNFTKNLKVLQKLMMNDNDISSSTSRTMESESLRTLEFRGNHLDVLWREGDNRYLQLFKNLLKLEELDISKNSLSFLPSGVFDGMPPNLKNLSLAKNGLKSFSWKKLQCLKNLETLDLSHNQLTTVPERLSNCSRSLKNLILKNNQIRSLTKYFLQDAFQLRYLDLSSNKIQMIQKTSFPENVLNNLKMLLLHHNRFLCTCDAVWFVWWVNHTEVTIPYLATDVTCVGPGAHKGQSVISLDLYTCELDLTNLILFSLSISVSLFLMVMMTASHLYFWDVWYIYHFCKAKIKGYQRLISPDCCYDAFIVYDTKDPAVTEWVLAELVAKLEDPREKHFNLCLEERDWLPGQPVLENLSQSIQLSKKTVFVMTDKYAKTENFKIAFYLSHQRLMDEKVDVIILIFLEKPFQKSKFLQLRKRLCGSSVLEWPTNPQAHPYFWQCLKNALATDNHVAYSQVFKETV
# [2] = biological target: T2, Toll-like receptor 8 (Homo sapiens) (UniProt Q9NR97); assay: Agonist activity at human TLR8 expressed in HEK cells at 180 uM after 8 to 12 hrs by NFkappaB/SEAP reporter gene assay; assay type: cell-based
# T2 sequence (whole entry): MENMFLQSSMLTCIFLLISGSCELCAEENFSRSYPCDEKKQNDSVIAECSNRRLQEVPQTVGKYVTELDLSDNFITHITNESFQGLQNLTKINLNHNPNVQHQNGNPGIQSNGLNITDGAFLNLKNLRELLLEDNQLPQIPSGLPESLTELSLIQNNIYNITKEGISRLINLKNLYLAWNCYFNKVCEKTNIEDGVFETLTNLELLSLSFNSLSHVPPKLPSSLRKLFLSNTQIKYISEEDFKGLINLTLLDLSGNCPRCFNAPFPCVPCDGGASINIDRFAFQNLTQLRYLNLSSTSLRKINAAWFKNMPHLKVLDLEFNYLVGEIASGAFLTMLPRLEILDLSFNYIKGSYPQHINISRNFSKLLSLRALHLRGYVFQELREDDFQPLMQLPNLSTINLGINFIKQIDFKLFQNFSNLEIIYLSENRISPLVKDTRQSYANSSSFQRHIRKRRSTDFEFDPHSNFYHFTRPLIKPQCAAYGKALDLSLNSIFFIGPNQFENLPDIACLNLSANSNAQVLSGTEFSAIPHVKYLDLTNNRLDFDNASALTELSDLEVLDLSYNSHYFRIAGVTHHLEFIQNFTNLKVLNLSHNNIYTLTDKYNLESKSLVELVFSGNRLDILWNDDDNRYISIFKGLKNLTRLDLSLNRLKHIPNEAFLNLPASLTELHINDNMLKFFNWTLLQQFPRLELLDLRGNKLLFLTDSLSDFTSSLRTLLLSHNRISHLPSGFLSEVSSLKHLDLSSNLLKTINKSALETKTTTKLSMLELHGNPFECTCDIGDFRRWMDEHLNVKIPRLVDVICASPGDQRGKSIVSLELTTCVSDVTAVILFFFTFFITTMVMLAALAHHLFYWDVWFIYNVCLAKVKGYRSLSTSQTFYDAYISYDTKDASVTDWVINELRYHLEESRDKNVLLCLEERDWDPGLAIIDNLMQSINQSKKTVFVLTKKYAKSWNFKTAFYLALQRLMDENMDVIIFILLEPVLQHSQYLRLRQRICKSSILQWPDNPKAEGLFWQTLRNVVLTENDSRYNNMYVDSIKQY
# [3] = biological target: T3, Toll-like receptor 7 (Homo sapiens) (UniProt Q9NYK1); assay: Agonist activity at human TLR7 expressed in HEK cells at 180 uM after 8 to 12 hrs by NFkappaB/SEAP reporter gene assay; assay type: cell-based
# T3 sequence (whole entry): T1 sequence (Q9NYK1 whole entry)
# [4] = biological target: T4, Toll-like receptor 8 (Homo sapiens, UniProt Q9NR97); assay: Agonist activity at human TLR8 expressed in HEK cells after 8 to 12 hrs by NFkappaB/SEAP reporter gene assay; assay type: cell-based
# T4 sequence (Q9NR97 whole entry): T2 sequence (whole entry)
# [5] = tested on: PBMC; assay: Immunostimulatory activity in human PBMC assessed as increase in IL-12p70 levels at 0.39 to 50 uM after 24 hrs by ELISA; assay type: functional, cell-based
# [6] = tested on: PBMC; assay: Immunostimulatory activity in human PBMC assessed as increase in IL-1beta levels at 0.39 to 50 uM after 24 hrs by ELISA; assay type: functional, cell-based
# [7] = tested on: PBMC; assay: Immunostimulatory activity in human PBMC assessed as increase in IFNgamma levels at 0.39 to 50 uM after 24 hrs by ELISA; assay type: functional, cell-based
# [8] = tested on: PBMC; assay: Immunostimulatory activity in human PBMC assessed as increase in TNFalpha levels at 0.39 to 50 uM after 24 hrs by ELISA; assay type: functional, cell-based
# [9] = tested on: PBMC; assay: Immunostimulatory activity in human PBMC assessed as increase in IL-1beta levels at 12.5 uM after 24 hrs by ELISA; assay type: functional, cell-based
# [10] = tested on: PBMC; assay: Immunostimulatory activity in human PBMC assessed as increase in IL-12p70 levels at 12.5 uM after 24 hrs by ELISA; assay type: functional, cell-based
# [11] = tested on: PBMC; assay: Immunostimulatory activity in human PBMC assessed as increase in IFNgamma levels at 12.5 uM after 24 hrs by ELISA; assay type: functional, cell-based
# [12] = tested on: PBMC; assay: Immunostimulatory activity in human PBMC assessed as increase in TNFalpha levels at 12.5 uM after 24 hrs by ELISA; assay type: functional, cell-based
# [13] = tested on: PBMC; assay: Immunostimulatory activity in human PBMC assessed as increase in IL-1beta levels at 1 uM after 24 hrs by ELISA; assay type: functional, cell-based
# [14] = tested on: PBMC; assay: Immunostimulatory activity in human PBMC assessed as increase in IFNgamma levels at 1 uM after 24 hrs by ELISA; assay type: functional, cell-based
# [15] = tested on: PBMC; assay: Immunostimulatory activity in human PBMC assessed as increase in TNFalpha levels at 1 uM after 24 hrs by ELISA; assay type: functional, cell-based
smiles,measurement,setting,value
CCCCc1nc2c(N)nc3cc(C(=O)OC)ccc3c2n1CCCO,EC50,[1],1.72 µM
same,Activity,[2],inactive
CCCCc1nc2c(N)nc3cc(C(=O)OC)ccc3c2n1CCCN,Activity,[3],inactive
same,EC50,[4],26.7 µM
CCCCc1nc2c(N)nc3cc(C(=O)OC)ccc3c2n1CCCCO,EC50,[1],3.21 µM
same,Activity,[2],inactive
CC(C)Cn1cnc2c(N)nc3ccccc3c21 [IMIQUIMOD],EC50,[1],11.4 µM
same,Activity,[2],inactive
same,Activity,[5],inactive
same,Activity,[6],inactive
same,Activity,[7],inactive
same,Activity,[8],inactive
CCCCc1nc2c(N)nc3cc(C(=O)OC)ccc3c2n1Cc1ccc(C(=O)O)cc1,Activity,[2],inactive
CCCCc1nc2c(N)nc3cc(C(=O)OC)ccc3c2n1CCO,EC50,[1],14.4 µM
same,EC50,[4],37 µM
CCCCc1nc2c(N)nc3cc(C(=O)OC)ccc3c2n1CCC(=O)OC,Activity,[2],inactive
CCCCc1nc2c(N)nc3cc(C(=O)OC)ccc3c2n1CCCCC(=O)OC,Activity,[2],inactive
CCCCc1nc2c(N)nc3cc(C(=O)OC)ccc3c2n1CCCSC,Activity,[2],inactive
CCCCc1nc2c(N)nc3cc(C(=O)OC)ccc3c2n1CCCCN,Activity,[3],inactive
CCCCc1nc2c(N)nc3cc(C(=O)OC)ccc3c2n1CCCC(=O)OC,Activity,[2],inactive
CCCCc1nc2c(N)nc3cc(C(=O)OC)ccc3c2n1CCSCC,Activity,[2],inactive
CCCCc1nc2c(N)nc3cc(C(=O)OC)ccc3c2n1CCN,Activity,[9],Active
same,Activity,[3],inactive
same,Activity,[10],Active
same,Activity,[11],Active
CCCCc1nc2c(N)nc3cc(C(=O)OC)ccc3c2n1CCCCC(=O)O,Activity,[3],inactive
same,Activity,[2],inactive
CCCCCCCC(=O)OC(C)Cn1c(CCCC)nc2c(N)nc3cc(C(=O)OC)ccc3c21 (configuration not stated),Activity,[3],inactive
same,Activity,[2],inactive
CCCCc1nc2c(N)nc3cc(C(=O)OC)ccc3c2n1Cc1ccc(CN)cc1,Activity,[12],Active
CCCCc1nc2c(N)nc3cc(C(=O)OC)ccc3c2n1CC(C)(C)O,EC50,[1],1.69 µM
same,EC50,[4],20.9 µM
CCCCc1nc2c(N)nc3cc(C(=O)OC)ccc3c2n1CCc1ccc(C(=O)O)cc1,Activity,[3],inactive
same,Activity,[2],inactive
CCCCc1nc2c(N)nc3cc(C(=O)OC)ccc3c2n1CCSC,Activity,[2],inactive
same,Activity,[13],Active
same,Activity,[14],Active
same,Activity,[15],Active
CCCCc1nc2c(N)nc3cc(C(=O)OC)ccc3c2n1CC(C)OC(C)=O (configuration not stated),EC50,[1],3.06 µM
same,Activity,[2],inactive
CCCCc1nc2c(N)nc3cc(C(=O)OC)ccc3c2n1CCCCCC(=O)OC,Activity,[2],inactive
CCCCc1nc2c(N)nc3cc(C(=O)OC)ccc3c2n1CC(=O)OC,Activity,[2],inactive
